Test results published in publication PMC6936879, “Inhibiting the copper efflux system in microbes as a novel approach for developing antibiotics” (PLoS ONE, 2019).

Experiments:
Format in all cases: cell-based
E. coli (BL21) = experiment: Kirby-Bauer test (disc diffusion); conditions: 2 mm radius discs, LB petri dishes, 37 °C overnight
E. coli (BL21;DE3) [1] = experiment: E. coli viability assay (LIVE/DEAD fluorescence imaging); conditions: peptide 125 μM; LIVE/DEAD staining, M9 medium, confocal imaging, cell counts with ImageJ; mean ± SE, n = 3
Method: E. coli (BL21;DE3) were dyed using the L7007 LIVE/DEAD Bacterial Viability kit (Molecular Probes, Eugene OR, USA); microbes were grown in M9 medium. Images were acquired on a Leica SP8 confocal microscope, running LASX acquisition software. The magnification consisted of a 63 X 1.4 NA objective. Microbes were counted using ImageJ software. Error calculations were based on three repetitions, with each experiment scanned at nine different tiles—all together, 27 repetitions.
Live/dead fluorescence cell imaging experiments were used to indicate bacterial viability when incubated with the peptides. This method also helped to determine whether the decrease in the growth rate described above resulted from deceleration in E. coli growth or its substantial death. E coli were grown to the late […] phase (according to the growth rate lines; Figs B to D in S1 File) in the presence of the peptides in poor medium (M9), which mostly resembles physiological conditions.[52–54] Glucose levels in the growth media were sufficient to prevent bacterial viability loss due to lack of nutrition, yet not too high to positively affect its viability. […] However, the effect of the peptides was not as substantial as the commercially available antibiotic kanamycin. […] 5 ± 4.3% and up to 45.3 ± 4.3% reduction at a concentration of 125 μM.
Fig 4 Effect of the test peptides on E. coli viability. […]

E. coli (BL21;DE3) [2] = experiment: E. coli growth rate experiment (O.D. 600 nm) under copper stress; conditions: M9 medium, 37 °C, value after 14 h incubation, 5 μM Cu(II) chloride in assay (sentence does not say with or without Cu(II)), mean ± SE, n = 5
Method: E. coli (BL21;DE3) growth rates were evaluated in 96-well microplates: in 200 μl of a poor medium comprising M9 medium. Incubation was for 16 h at 37°C with Copper(II) chloride (Sigma-Aldrich, St. Louis, MO, USA) at a concentration of 5 μM. Absorbance at 600 nm was measured every 30 min after stirring for 5 s in a 96-well plate reader (SPL Life Sciences, Gyeonggi, Korea). The buffer background was auto-subtracted. Each experiment was repeated five times under identical conditions.
Next, E. coli were grown in M9 medium for 16 h, and their growth rate was evaluated in the absence and presence of Cu(II) in the medium. In each sample, a different peptide was introduced to the medium, with the kanamycin as a positive control. […] Growth rate values for all peptides at various concentrations after 14 h of incubation are presented in Fig 3 (the growth rate curves are presented in Figs E to F in S1 File).
Fig 3 Effect of test peptides on the E. coli growth rate. E. coli cultures were grown as described in Methods. The growth rate values after a 14 h incubation in the medium in the presence (gray lines) and absence (black lines) of Cu(II). Concentrations of the test peptides: A. 50 μM, B. 75 μM, C. 100 μM, and D. 125 μM. *p < 0.05, MEAN ± SE, n = 5, a comparison between the values in the presence and absence of Cu(II). #p < 0.05, MEAN ± SE, n = 5, in the presence of Cu(II) and comparing between values of a buffer and peptide. t-test was used for the statistic evaluation.

With AKIQG [pep8] the “r, radius of bacteria killing formed over petri dishes by peptide-solution discs” value (E. coli (BL21); disc solution 50 µM in 0.85% NaCl) was 0 mm, the “r, radius of bacteria killing formed over petri dishes by peptide-solution discs” value (E. coli (BL21); disc solution 75 µM in 0.85% NaCl) was 0.5 mm and the “r, radius of bacteria killing formed over petri dishes by peptide-solution discs” value (E. coli (BL21); disc solution 100 µM in 0.85% NaCl) was 0.5 mm. For the same substance, the “r, radius of bacteria killing formed over petri dishes by peptide-solution discs” value (E. coli (BL21); disc solution 125 µM in 0.85% NaCl) was 1 mm, the “reduction of bacterial viability” value (E. coli (BL21;DE3) [1]) was 41 ±5.15% and the “decrease in O.D. (600 nm)” value (E. coli (BL21;DE3) [2]; peptide 50 μM) was 45.5 ± 4.8%. The “decrease in O.D. (600 nm)” value (E. coli (BL21;DE3) [2]; peptide 100 μM) was 63.6 ± 4.0%.
